Experimental data reported in publication PMC12621200, “Giving an Enzyme Scissors: Serotonin Derivatives as Potent Organocatalytic Switches for DNA Repair Enzyme OGG1” (Journal of Medicinal Chemistry, 2025).
pIC50: −log10 of the molar value.

target: T1, K249A mutant OGG1 (Homo sapiens, UniProt O15527, K249A); experiment: AP-lyase assay on radiolabeled AP-site-containing oligonucleotide (PAGE); format: biochemical; details: Figure S8
T1 construct: made in house
T1 sequence (O15527 whole entry K249A): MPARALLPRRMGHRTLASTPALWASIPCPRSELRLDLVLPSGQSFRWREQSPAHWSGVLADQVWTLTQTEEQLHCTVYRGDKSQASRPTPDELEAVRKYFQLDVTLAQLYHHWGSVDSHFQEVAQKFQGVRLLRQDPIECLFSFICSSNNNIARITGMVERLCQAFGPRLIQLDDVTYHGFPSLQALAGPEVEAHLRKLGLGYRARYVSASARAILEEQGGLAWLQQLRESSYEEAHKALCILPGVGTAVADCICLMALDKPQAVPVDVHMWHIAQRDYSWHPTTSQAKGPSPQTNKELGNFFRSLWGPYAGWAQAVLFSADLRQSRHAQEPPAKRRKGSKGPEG

| restoration of AP-lyase activity of Lys249Ala mutant | SMILES |
| --- | --- |
| failed to restore AP-lyase activity | NCCc1c(-c2cncc(F)c2)[nH]c2ccc(O)cc12 [Compound 41, 3-(2-Aminoethyl)-2-(5-fluoropyridin-3-yl)-1H-indol-5-ol] |

target: T2, NUDT5 (Homo sapiens, UniProt Q9UKK9); experiment: not given; design: method as in Hank et al. 1 and Kehler et al. 2; details: reference compound; ref Hank et al. 1 and Kehler et al. 2; cited from earlier work
T2 construct: made in house

| SMILES | Reference inhibition [%] |
| --- | --- |
| Cn1c(=O)c2c(nc(N3CCNCC3)n2Cc2nnc(-c3ccc(Cl)c(Cl)c3)o2)n(C)c1=O [TH5427] | 99 |

target: T3, OGG1 (Homo sapiens, UniProt O15527); experiment: Biochemical fluorescence (fluorophore-quencher) assay of OGG1 incision rate, 8-oxoA substrate; details: not given
T3 construct: made in house
T3 sequence (O15527 whole entry): as the sequence (O15527 whole entry K249A) above, with A249K counted along it

| OGG1 activation, SAR result in words | SMILES |
| --- | --- |
| did not significantly affect potency | NCCc1c(-c2cncc(F)c2)[nH]c2ccc(O)cc12 [Compound 41, 3-(2-Aminoethyl)-2-(5-fluoropyridin-3-yl)-1H-indol-5-ol] |
| inhibited activity | CN(C)Cc1c(-c2ccccc2)[nH]c2ccccc12 [TH12166] |

same assay, conditions: biochemical assay of virtual screening hits (NCI samples), Table S1

| SMILES | AC50 (μM) |
| --- | --- |
| O=C1CCCCC1C(Nc1ccccc1)c1ccccc1 (centres unmarked) [NSC 123043] | inactive |
| NC(=O)C(O)c1c[nH]c2ccccc12 (centres unmarked) [NSC 128331] | inactive |
| Cc1[nH]c2ccccc2c(=O)c1CNCc1ccccc1 [NSC 133478] | inactive |
| O=C1Nc2ccccc2C1=NCCc1c[nH]c2ccccc12 [NSC 136042] | inactive |
| OC1(Cc2ccccn2)c2ccccc2CC1c1ccccc1 (centres unmarked) [NSC 147943] | inactive |
| CCOc1ccccc1C1NC(=O)c2ccccc2N1 (centres unmarked) [NSC 158389] | inactive |
| O=C1NC(c2ccccc2Cl)Nc2ccccc21 (centres unmarked) [NSC 175633] | inactive |
| CC1(C)CC(=O)C2=C(C1)Nc1ccc(Cl)cc1NC2c1ccccc1 (centres unmarked) [NSC 186216] | inactive |
| O=C1CCCC2=C1C(c1ccncc1)Nc1ccccc1N2 (centres unmarked) [NSC 186218] | inactive |
| Cc1ccc2c(c1)Nc1ccccc1C(=O)N2 [NSC 202050] | inactive |
| Cl.N[C@@H](Cc1c[nH]c2ccccc12)C(=O)OCc1ccccc1 [NSC 202376] | inactive |
| Cl.NCCc1c[nH]c2ccccc12 [NSC 522258] | inactive |
| CC(=O)C1CC(C)=CCC12C(=O)Nc1ccccc12 (centres unmarked) [NSC 642717] | inactive |

Continued, values first:

| AC50 (μM) | SMILES |
| --- | --- |
| inactive | Cc1nc(N)[nH]c(=O)c1CCCNc1cccc(C(F)(F)F)c1 [NSC 210448] |
| inactive | O=c1[nH]cc(Cc2cccc(OCc3ccccc3)c2)c(=O)[nH]1 [NSC 210777] |
| inactive | NC(=O)C1CCCN(C(=O)Nc2ccccc2F)C1 (centres unmarked) [NSC 213798] |
| inactive | COc1cc(OC)c(NC(=O)CC2SC(N)=NC2=O)cc1Cl (centres unmarked) [NSC 247010] |
| inactive | CC1=CC2C(c3ccccc3)Nc3ccccc3N2C1=O (centres unmarked) [NSC 263759] |
| inactive | O=C1c2ccccc2C(O)N1CCc1c[nH]c2ccccc12 (centres unmarked) [NSC 338155] |
| inactive | CNC1NC(=O)c2ccccc2N1Cc1ccc(F)cc1 (centres unmarked) [NSC 364164] |
| inactive | CCOC(=O)c1ccc2c(c1)NCc1cccc(OC)c1O2 [NSC 364889] |
| inactive | CC1CC2=C(C(=O)O1)C(c1ccccc1)Nc1ccccc1N2 (centres unmarked) [NSC 637579] |
| weak | O=C1Nc2ccccc2C12CCNC2Cc1ccccc1 (centres unmarked) [NSC 643518] |
| inactive | c1ccc(C2Nc3ccccc3C3OCCCC23)cc1 (centres unmarked) [NSC 645796] |
| inactive | COc1ccccc1N1C(=O)CSC1c1c[nH]c2ccccc12 (centres unmarked) [NSC 655348] |
| inactive | CC(=O)N1C(C(=O)NC2CCCCC2)CSC1c1ccccc1 (centres unmarked) [NSC 669300] |
| inactive | O=C(NCCc1c(-c2ccccc2)[nH]c2ccccc12)C(F)(F)F [NSC 674639] |
| inactive | CN(C)Cc1c(-c2ccccc2)[nH]c2ccccc12 [TH12166] |

same assay, conditions: concentration giving 50% of the incision rate of OGG1 with APE1 (2 nM) control; read-out: AC50 (CI95%)

| AC50 [µM] | SMILES |
| --- | --- |
| 0.74 | NCCc1c(-c2cncc(F)c2)[nH]c2ccc(O)cc12 [Compound 41, 3-(2-Aminoethyl)-2-(5-fluoropyridin-3-yl)-1H-indol-5-ol] |

same assay, conditions: inhibition of OGG1

| pIC50 | SMILES |
| --- | --- |
| 4.81 | CN(C)Cc1c(-c2ccccc2)[nH]c2ccccc12 [TH12166] |

target: T4, NUDT15 (Homo sapiens, UniProt Q9NV35); experiment: not given; design: method as in Hank et al. 1 and Kehler et al. 2; details: reference compound; ref Hank et al. 1 and Kehler et al. 2; cited from earlier work
T4 construct: made in house
T4 sequence (Q9NV35 1-164): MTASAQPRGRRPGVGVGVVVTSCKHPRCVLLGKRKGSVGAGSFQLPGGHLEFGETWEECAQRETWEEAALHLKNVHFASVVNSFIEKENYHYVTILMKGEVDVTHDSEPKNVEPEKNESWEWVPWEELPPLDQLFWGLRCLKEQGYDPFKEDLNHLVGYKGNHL

| SMILES | Reference inhibition [%] |
| --- | --- |
| O=C(c1ccc2[nH]ccc2c1)N1CCN(S(=O)(=O)c2ccc3[nH]c(=O)oc3c2)CC1 [TH1760] | 96 |
